Assay results: patent US11352396B2, “Antimicrobial peptides and methods of using same” (Zoetis Services LLC, priority 2017, dated 2022)

Columns and labels:
[1] = tested on: E. coli ATCC 25922; assay type: cell-based; settings: E. coli 25922, Table 6
How it was run: (§1)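 Broth microdilution followed CLSI VET01-S2, with peptides serially diluted to in-assay concentrations of 50 μM to 0.05 μM. A 0.5 McFarland inoculum diluted 1:250 in Mueller-Hinton Broth was incubated with peptide for 18-20 hours. MIC was read visually as the first well without visible growth.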

[2] = tested on: MSSP (Methicillin-Susceptible Staphylococcus pseudintermedius); test: MIC against selected strains of MSSP; assay type: cell-based; parameters: MIC MSSP 49051 / MIC MSSP 81923 / MIC MSSP 84250 / Effect on MSSP 86000 / Effect on MSSP 72036 / Effect on MSSP 78032: unit not given beside the values; Effect on MSSP 71990 / Effect on MSSP 86001 / Effect on MSSP 72191 / Effect on MSSP 76986 / Effect on MSSP 77378 / Effect on MSSP 81923 / Effect on MSSP 84250 / Effect on MSSP 84658: unit: µM; settings: for SP 49051: S. pseudintermedius 49051, Table 6; for Effect on MSSP 71990: strain 71990, Table 5; for Effect on MSSP 72036: strain 72036, Table 5; for Effect on MSSP 72191: strain 72191, Table 5; for Effect on MSSP 76986: strain 76986, Table 5; for Effect on MSSP 77378: strain 77378, Table 5; for Effect on MSSP 78032: strain 78032, Table 5; for Effect on MSSP 81923: strain 81923, Table 5; for Effect on MSSP 84250: strain 84250, Table 5; for Effect on MSSP 84658: strain 84658, Table 5; for Effect on MSSP 86000: strain 86000, Table 5; for Effect on MSSP 86001: strain 86001, Table 5
How it was run: (§2)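 MIC read by eye as the first well showing no growth after 18–20 h incubation. Cultures at 0.5 McFarland were diluted 1:250 in Mueller-Hinton broth and exposed to peptide over 50 μM–0.05 μM in the assay, per CLSI VET01-S2 microbroth method.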

[3] = tested on: cRBC; assay type: cell-based, canine
How it was run: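 Percent lysis, measured by absorbance at 405 nm, used 1% Triton X-100 as full effect and phosphate buffer as zero. Peptides spanned 50 µM–0.05 µM and were held with plasma-depleted washed erythrocytes at 37 °C for 1 h.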

[4] = tested on: MRSP (Methicillin-Resistant Staphylococcus pseudintermedius); test: MIC against selected strains of MRSP; assay type: cell-based; parameters: key to MIC MRSP 72192 / MIC MRSP 76923 / MR 71994 / Mr 88493 / MR 72035 / MR 72192 / MR 76923 / MR 79882 / MR 80279 / MR 81926 / MR 86002 / MR 87665: MIC in μM (visual, first well with no growth); settings: for MR 71994: MRSP strain 71994, Table 6; for MR 72035: MRSP strain 72035, Table 6; for MR 72192: MRSP strain 72192, Table 6; for MR 76923: MRSP strain 76923, Table 6; for MR 79882: MRSP strain 79882, Table 6; for MR 80279: MRSP strain 80279, Table 6; for MR 81926: MRSP strain 81926, Table 6; for MR 86002: MRSP strain 86002, Table 6; for MR 87665: MRSP strain 87665, Table 6; for Mr 88493: MRSP strain 88493, Table 6
How it was run: as §2

[5] = tested on: S. aureus ATCC 29213; assay type: cell-based; parameters: key to SA 29213: MIC in μM (lowest conc. with no visible growth); settings: S. aureus 29213, Table 6
How it was run: as §1

[6] = tested on: Canine-derived epithelial keratinocyte (CPEK) cells; assay type: cell-based
How it was run: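 Viability was read by CellTiter-Glo luminescence after overnight exposure (37 °C, 5% CO2) of canine keratinocytes to a peptide range of 50–0.05 μM. Percent effect used phosphate buffer as the zero control and 0.1% Triton X-100 as the full-effect control.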

Substance	EC 25922 [1] [µM]	SP 49051 [2]	Effect on MSSP 71990 [2]	Effect on MSSP 72036 [2]	Effect on MSSP 72191 [2]	Effect on MSSP 76986 [2]	Effect on MSSP 77378 [2]	Effect on MSSP 78032 [2]	Effect on MSSP 81923 [2]	Effect on MSSP 84250 [2]	Effect on MSSP 84658 [2]	Effect on MSSP 86000 [2]	Effect on MSSP 86001 [2]	cRBC (50 μM) [3]	MR 71994 [4]	MR 72035 [4]	MR 72192 [4]	MR 76923 [4]	MR 79882 [4]	MR 80279 [4]	further results
30 (PWCFRVCYRGICYRRCR; Artificial Antimicrobial peptide) [compound 30]	1.6	1.6	0.8	0.8	1.6	0.8	0.8	0.8	0.8	0.8	1.6	1.6	1.6	63.5	1.6	0.8	0.8	0.8	0.8	0.8	MR 81926 [4]: 1.6; MR 86002 [4]: 1.6; MR 87665 [4]: 1.6; Mr 88493 [4]: 1.6; SA 29213 [5]: 3.1; CPEK (50 μM) [6]: 17.0
117 (GWCFYVCYRGICYRRCRD; Artificial Antimicrobial peptide) [compound 117]	0.8	1.6	1.6	1.6	1.6	0.8	0.8	1.6	1.6	1.6	1.6	1.6	1.6	97.8	1.6	1.6	0.8	1.6	0.8	1.6	MR 81926 [4]: 1.6; MR 86002 [4]: 0.8; MR 87665 [4]: 1.6; Mr 88493 [4]: 1.6; SA 29213 [5]: 6.2; CPEK (50 μM) [6]: 14.7
113 (KWCFRVCYRGICYRRCAD; Artificial Antimicrobial peptide) [compound 113]	1.6	1.6	1.6	1.6	1.6	1.6	1.6	1.6	1.6	1.6	1.6	1.6	1.6	86.3	1.6	1.6	1.6	1.6	1.6	1.6	MR 81926 [4]: 1.6; MR 86002 [4]: 1.6; MR 87665 [4]: 1.6; Mr 88493 [4]: 1.6; SA 29213 [5]: 6.2; CPEK (50 μM) [6]: 15.7
100 (KWCFWVCYRGICYRRCRD; Artificial Antimicrobial peptide) [compound 100]	0.8	1.6	1.6	1.6	3.1	1.6	3.1	1.6	1.6	1.6	1.6	1.6	1.6	100.0	1.6	3.1	1.6	1.6	1.6	1.6	MR 81926 [4]: 1.6; MR 86002 [4]: 1.6; MR 87665 [4]: 1.6; Mr 88493 [4]: 3.1; SA 29213 [5]: 6.2; CPEK (50 μM) [6]: 29.5
31 (PWCFRVCYRGICYRRCRD; Artificial Antimicrobial peptide) [compound 31]	1.6	1.6	1.6	1.6	1.6	1.6	1.6	1.6	1.6	1.6	1.6	1.6	1.6	43.5	1.6	1.6	1.6	1.6	1.6	1.6	MR 81926 [4]: 1.6; MR 86002 [4]: 1.6; MR 87665 [4]: 1.6; Mr 88493 [4]: 1.6; SA 29213 [5]: 3.1; CPEK (50 μM) [6]: 11.0
